# Experimental data from US9447081B2, “Substituted pyrimidines as pharmaceuticals and insecticides” (SHENYANG SINOCHEM AGROCHEMICALS R&D CO., LTD., priority 2012, dated 2016).
# Experiments:
# diamond back moth = test: Insecticidal activity against diamond back moth (airbrush spray); type: in vivo; conditions: mortality after 72 h; for pest or weed control at 600 µg/mL: read-out: control of the second instar larvae of diamond back moth
# Protocol: (§1) Compounds were dissolved in mixed solvent (acetone:methanol=1:1), and diluted to required concentration with water containing 0.1% of tween 80.
# (§2) Diamond back moth, armyworm, Green Peach Aphid and carmine spider mite were used as targets and the method of spraying by airbrush was used for determination of insecticidal biassays.
# (§3) The method of spraying by airbrush: The cabbage leaves were made into plates of 2 cm diameter by use of punch. A test solution (0.5 ml) was sprayed by airbrush at the pressure of 0.7 kg/cm^2 to both sides of every plate. 10 Second instar larvae were put into the petri-dishes after the leaf disc air-dried and 3 replicates were set for each treatment. Then the insects were maintained in observation room (25° C., 60˜70% R.H.). Scores were conducted and mortalities were calculated after 72 h.
# wheat powdery mildew = test: Protectant activity in vivo (whole plant), wheat powdery mildew
# Protocol: (§4) The method is as followed: The whole plant is used in this test. The compound is dissolved in a proper solvent to get mother solution. The proper solvent is selected from acetone, methanol, DMF and so on according to their dissolving capability to the sample. […] The testing solution is sprayed to the host plant by a special plant sprayer. The plant is inoculated with fungus after 24 hours. According to the infecting characteristic of fungus, the plant is stored in a humidity chamber and then transferred into greenhouse after infection is finished. And the other plants are placed in greenhouse directly. The activity of compound is obtained by eyeballing after 7 days in common.
# [1] = test system: Green peach aphids (Myzus Persicae Sulzer); test: Activity against green peach aphid (airbrush foliar spray); type: in vivo; conditions: death rate after 48 h; for pest or weed control at 600 µg/mL / pest or weed control at 10 µg/mL / pest or weed control at 100 µg/mL: Myzus persicae, foliar, 48 h; for pest or weed control at 600 µg/mL / pest or weed control at 100 µg/mL: read-out: Insecticidal activity against peach aphid (control); for pest or weed control at 10 µg/mL / Insecticidal activity against peach aphid: 10 mg/L; for pest or weed control at 10 µg/mL: read-out: Insecticidal activity against peach aphid
# Protocol: as §1, §2
# Method: Filter papers were put in culture dishes (Diameter=6 cm), and water was dripped on filter papers for preserving moisture. Green peach aphids (Myzus Persicae Sulzer) were maintained on cabbage. Leaves (Diameter=3 cm) of approximately 15-30 aphids were put in the culture dishes. Bioactivity tests were used the method of Airbrush Foliar Spray, pressure=10 psi (0.7 kg/cm2), spray volume=0.5 mL. The studies were conducted at three constant temperatures 25±1 C. in incubator cabinets with 60±5% RH. Survey the survival aphids after 48 h and calculate the death rates.
# armyworm = test: Insecticidal activity against armyworm (airbrush spray); type: in vivo; conditions: second instar larvae, mortality after 72 h
# Protocol: as §1, §2
# as §3, with “corn” for “cabbage”
# corn rust = test: Protectant activity in vivo (whole plant), corn rust; conditions: for pest or weed control at 100 µg/mL / pest or weed control at 400 µg/mL / pest or weed control at 25 µg/mL: Zea mays, 168 h, read-out: protectant activity against corn rust
# Protocol: as §4
# cucumber gray mold = test: Fungicidal activity in vitro (96-well, High Through Put), cucumber gray mold; type: cell-based; conditions: 25 mg/L, 24 hours; for inhibition at 25 µg/mL: read-out: inhibition rate against cucumber gray mold
# rice blast = test: microbe, parasite or virus in culture; type: cell-based
# cucumber downy mildew = test: Protectant activity in vivo (whole plant), cucumber downy mildew
# Protocol: as §4
# carmine spider mite = test: Acaricidal activity against carmine spider mite (airbrush spray); type: in vivo; conditions: Tetranychus cinnabarinus; 100 mg/L, adults, mortality after 72 hrs
# Protocol: as §1, §2
# Method: Broadbean shoots with two true leaves in pot were taken, the healthy adults of carmine spider mite were inoculated to the leaves. The adults were counted and then sprayed with airbrush at the pressure of 0.7 kg/cm^2 and at dose of 0.5 ml. 3 replicates were set for each treatment. And then they were maintained in standard observation room. Scores were conducted and mortalities were calculated after 72 hrs.
# [2] = test system: human bladder cancer cell line T24; test: In vitro cell inhibition assay against human cancer cell T24; type: cell-based; conditions: 10 μM, incubation for one week, crystal violet
# Protocol: The tested compounds are dissolved in DMSO and diluted to designed concentration with culture medium.
# The of cell culture technology in vitro was selected to evaluate growth inhibition rate against human bladder cancer cell line T24. 1000 to 3000 cells were inoculated into 24-well plate, followed by addition of cell culture medium (1 mL) known for technicans in this field (culture medium is RMPI-1640), after cells were cultured in incubator (CO2 5%, 37° C.) for 24 hours, then the tested compounds with designed concentration were added to each well. […] After incubation for one week, the culture medium was removed, the plate wells were washed with cold PBS once, fixed with 1% formalin at room temperature for 10 minutes, and washed with cold PBS one more time, followed by stain with 0.1% crystal violet for 30 minutes. Crystal violet can be recycled. The stained cells were washed with deionized water gently, dried in the air and reserved, were then incubated for 4 h. The inhibition rate was calculated according to the left cells of each treatment and contrast.
# The inhibition rate=the left cells of each treatment/the left cells of contrast×100%
# [3] = Triticum aestivum, 168 h, 25 mg/L, read-out: protectant activity against wheat powdery mildew
# [4] = Triticum aestivum, 168 h, 100 mg/L, read-out: protectant activity against wheat powdery mildew
# [5] = Triticum aestivum, 168 h, 400 mg/L, read-out: protectant activity against wheat powdery mildew
# [6] = Pyricularia oryzae, 24 h, read-out: inhibition rate against rice blast
# [7] = Cucumis sativus, 168 h, 100 mg/L, read-out: protectant activity against cucumber downy mildew
# [8] = Cucumis sativus, 168 h, 400 mg/L, read-out: protectant activity against cucumber downy mildew
Structure (SMILES),pest or weed control at 600 µg/mL (diamond back moth; 600 mg/L),pest or weed control at 400 µg/mL (wheat powdery mildew; [5]),pest or weed control at 600 µg/mL ([1]; 600 mg/L),pest or weed control at 600 µg/mL (armyworm; 600 mg/L),pest or weed control at 100 µg/mL (corn rust; 100 mg/L),pest or weed control at 400 µg/mL (corn rust; 400 mg/L),inhibition at 25 µg/mL (cucumber gray mold),inhibition at 25 µg/mL (rice blast; [6]),pest or weed control at 400 µg/mL (cucumber downy mildew; [8]),pest or weed control at 100 µg/mL (carmine spider mite),pest or weed control at 100 µg/mL ([1]; 100 mg/L),other results
COc1ccc(CCNc2ncnc(C)c2Cl)cc1OC [CK8],0%,100%,0%,0%,0%,100%,0%,50%,98%,,,"pest or weed control at 6.25 µg/mL (wheat powdery mildew; Triticum aestivum, 168 h, 6.25 mg/L, read-out: protectant activity against wheat powdery mildew): 0%; pest or weed control at 25 µg/mL (wheat powdery mildew; [3]): 10%; pest or weed control at 100 µg/mL (wheat powdery mildew; [4]): 80%; pest or weed control at 25 µg/mL (cucumber downy mildew; Cucumis sativus, 168 h, 25 mg/L, read-out: protectant activity against cucumber downy mildew): 0%; pest or weed control at 50 µg/mL (cucumber downy mildew; Cucumis sativus, 168 h, 50 mg/L, read-out: protectant activity against cucumber downy mildew): 20%; pest or weed control at 100 µg/mL (cucumber downy mildew; [7]): 45%"
Cc1c(Cl)c(NCCc2ccc3c(c2)OCO3)nc[n+]1CC(=O)c1ccc(Cl)cc1 [CK10],0%,0%,0%,0%,,0%,0%,0%,0%,0%,,
COc1cc(CNc2ncnc(C)c2Cl)ccc1O [CK3],0%,0%,0%,0%,,0%,0%,,0%,0%,,
c1ccc2c(NCc3ccc4c(c3)OCO4)ncnc2c1 [CK13],0%,0%,50%,0%,0%,40%,0%,0%,0%,0%,0%,pest or weed control at 10 µg/mL [1]: 0%
c1ccc2c(NCCc3ccc4c(c3)OCO4)ncnc2c1 [ACTA-1],40%,0%,0%,40%,,0%,50%,,,0%,,
CCc1ncnc(NCCc2ccc3c(c2)OCO3)c1Cl [Compound 6],,,,,,,,,,,,inhibition rate against bladder cancer cell line T24 [2]: 100%; control of the second instar larvae of diamond back moth (diamond back moth; 100 mg/L): 90%; control of the second instar larvae of diamond back moth (diamond back moth; 600 mg/L): 100%; protectant activity against wheat powdery mildew (wheat powdery mildew; 6.25 mg/L): 85%; protectant activity against wheat powdery mildew (wheat powdery mildew; 25 mg/L): 90%; protectant activity against wheat powdery mildew (wheat powdery mildew; 100 mg/L): 95%; protectant activity against wheat powdery mildew (wheat powdery mildew; 400 mg/L): 100%; Insecticidal activity against peach aphid [1]: 100%; Insecticidal activity against peach aphid (control) ([1]; 100 mg/L): 100%; Insecticidal activity against peach aphid (control) ([1]; 600 mg/L): 100%; control of the armyworm (armyworm; 100 mg/L): 90%; control of the armyworm (armyworm; 600 mg/L): 90%; protectant activity against corn rust (corn rust; 6.25 mg/L): 90%; protectant activity against corn rust (corn rust; 25 mg/L): 100%; protectant activity against corn rust (corn rust; 100 mg/L): 100%; protectant activity against corn rust (corn rust; 400 mg/L): 100%; inhibition rate against cucumber gray mold (cucumber gray mold): 80%
Cc1ncnc(NCCc2ccc3c(c2)OCO3)c1Cl [Compound 5],,,,,,,,,,,,"inhibition rate against bladder cancer cell line T24 [2]: 100%; protectant activity against wheat powdery mildew (wheat powdery mildew; 6.25 mg/L): 75%; protectant activity against wheat powdery mildew (wheat powdery mildew; 25 mg/L): 85%; protectant activity against wheat powdery mildew (wheat powdery mildew; 100 mg/L): 100%; protectant activity against wheat powdery mildew (wheat powdery mildew; 400 mg/L): 100%; Insecticidal activity against peach aphid [1]: 0%; Insecticidal activity against peach aphid (control) ([1]; 100 mg/L): 52%; Insecticidal activity against peach aphid (control) ([1]; 600 mg/L): 100%; protectant activity against corn rust (corn rust; 6.25 mg/L): 100%; protectant activity against corn rust (corn rust; 25 mg/L): 100%; protectant activity against corn rust (corn rust; 100 mg/L): 100%; protectant activity against corn rust (corn rust; 400 mg/L): 100%; inhibition rate against rice blast (rice blast; in vitro, 25 mg/L, 24 hours): 80%; protectant activity against cucumber downy mildew (cucumber downy mildew; 12.5 mg/L): 100%; protectant activity against cucumber downy mildew (cucumber downy mildew; 25 mg/L): 100%; protectant activity against cucumber downy mildew (cucumber downy mildew; 50 mg/L): 100%; protectant activity against cucumber downy mildew (cucumber downy mildew; 100 mg/L): 100%; protectant activity against cucumber downy mildew (cucumber downy mildew; 400 mg/L): 100%"
Cc1ncnc(NCCc2ccc(O)cc2)c1Cl [CK4],0%,0%,0%,0%,,0%,0%,0%,0%,0%,,
ClCc1ncnc(NCCc2ccc3c(c2)OCO3)c1Cl [CK11],0%,0%,88%,0%,35%,85%,50%,,30%,25%,0%,pest or weed control at 10 µg/mL [1]: 0%; pest or weed control at 25 µg/mL (corn rust; 25 mg/L): 0%; pest or weed control at 100 µg/mL (cucumber downy mildew; [7]): 0%
Cc1ncnc(NC(C)c2ccc3c(c2)OC(F)(F)O3)c1Cl (stereo not shown) [PC-1],0%,100%,52%,0%,20%,70%,50%,,,51%,0%,pest or weed control at 25 µg/mL (wheat powdery mildew; [3]): 0%; pest or weed control at 100 µg/mL (wheat powdery mildew; [4]): 80%; pest or weed control at 25 µg/mL (corn rust; 25 mg/L): 0%; inhibition at 8.3 µg/mL (rice blast; [6]): 0%
